Measurements reported in patent US11214803B2, “Modulators of YAP1 expression” (Ionis Pharmaceuticals, Inc., priority 2019, dated 2022).
Strand notation (5' to 3'): a small letter for the sugar, then the base; units joined by * are phosphorothioate-linked, units joined directly phosphodiester-linked; [ ] holds rarer units or linkages, { } end groups; capitals alone tell only the bases. k = constrained ethyl (cEt); [5mC] = 5-methylcytosine; d = 2'-deoxy (DNA)

Each substance was assayed on Yap1 mRNA (assay: Antisense inhibition of human Yap1 in A-431 cells by cEt gapmers, single dose (Example 3, RTS36584)). Conditions: Table 8; A-431 cells, 5,000 cells per well, free uptake, 2,000 nM, approximately 48 hours; RTS36584; normalized to RIBOGREEN; Yap1 mRNA relative to untreated control cells.
Assay type: cell-based
Outline: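 A-431 cells (5,000/well) took up the 3-10-3 cEt gapmers by free uptake at 2,000 nM for about 48 h. Yap1 mRNA was measured by RT-qPCR with primer probe set RTS36584, normalized to RiboGreen total RNA, and given as % of untreated control.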

First: 958384 (antisense k[5mC]*k[5mC]*kT*dT*d[5mC]*d[5mC]*dT*d[5mC]*dT*dG*d[5mC]*dG*d[5mC]*kG*k[5mC]*k[5mC]) [Compound 958384]
Second: 958356 (antisense kT*kT*kG*dA*dA*dG*dA*dA*dG*dG*dA*dG*dT*k[5mC]*kG*kG) [Compound 958356]
The “YAP1 (% UTC)” value of the first is higher: 131 % UTC for the first, 9 % UTC for the second.

Same assay, conditions: Table 9; A-431 cells, 5,000 cells per well, free uptake, 2,000 nM, approximately 48 hours; RTS36584; normalized to RIBOGREEN; Yap1 mRNA relative to untreated control cells

“958521 (kT*kT*k[5mC]*d[5mC]*dA*dA*dT*dT*d[5mC]*dA*dT*d[5mC]*dA*kG*kA*kT; antisense) [Compound 958521]” and “958741 (antisense kG*kT*kT*dA*d[5mC]*dT*dG*d[5mC]*dA*dA*d[5mC]*dT*dG*k[5mC]*k[5mC]*k[5mC]) [Compound 958741]” are the same in “YAP1 (% UTC)” value: 14 % UTC for the first, 14 % UTC for the second.

Compared with “958646 (kT*kA*kT*dT*dA*dT*dA*dT*dG*dG*d[5mC]*dT*dA*kA*kG*k[5mC]; antisense) [Compound 958646]”, “958501 (kT*kG*k[5mC]*d[5mC]*dT*dA*dG*dG*dT*dT*d[5mC]*d[5mC]*dG*kA*k[5mC]*kA; antisense) [Compound 958501]” is higher in “YAP1 (% UTC)” value: 26 % UTC for the first, 41 % UTC for the second.

Same assay, conditions: Table 10; A-431 cells, 5,000 cells per well, free uptake, 2,000 nM oligonucleotide, approx. 48 hours; primer probe set RTS36584; Yap1 mRNA normalized to RIBOGREEN, percent of untreated control

Compared with “958692 (antisense kG*kG*k[5mC]*dT*dA*dG*dA*dG*dG*d[5mC]*d[5mC]*dG*dG*kG*kT*kG) [Compound 958692]”, “958657 (k[5mC]*kA*kG*dT*dA*dT*dA*dA*dT*dA*dT*d[5mC]*d[5mC]*kT*kA*kA; antisense) [Compound 958657]” is lower in “YAP1 (% UTC)” value: 105 % UTC for the first, 37 % UTC for the second.

Compared with “958702 (antisense kT*kG*kA*dT*dG*dT*d[5mC]*dT*dT*dG*dT*d[5mC]*d[5mC]*kA*kG*kA) [Compound 958702]”, “958802 (antisense kA*kG*kA*dT*dA*dA*dT*d[5mC]*dA*dT*d[5mC]*d[5mC]*dT*k[5mC]*kA*kA) [Compound 958802]” is higher in “YAP1 (% UTC)” value: 16 % UTC for the first, 25 % UTC for the second.

Going from “958812 (kT*kA*k[5mC]*dT*dA*dT*dA*dA*dG*dA*d[5mC]*dA*d[5mC]*k[5mC]*kA*kA; antisense) [Compound 958812]” to “958672 (kG*kA*kA*d[5mC]*dT*dT*dA*dG*dT*dT*d[5mC]*d[5mC]*d[5mC]*kT*kT*k[5mC]; antisense) [Compound 958672]”, the “YAP1 (% UTC)” value rises from 31 % UTC to 67 % UTC.

Same assay, conditions: Table 11; A-431 cells, 5,000 cells per well, free uptake, 2,000 nM oligonucleotide, approx. 48 hours; primer probe set RTS36584; Yap1 mRNA normalized to RIBOGREEN, percent of untreated control

First: 958503 (kA*kA*k[5mC]*d[5mC]*dA*dT*d[5mC]*d[5mC]*d[5mC]*dA*dA*dG*d[5mC]*kT*kA*k[5mC]; antisense) [Compound 958503]
Second: 958643 (antisense kT*kA*kG*d[5mC]*dA*dA*d[5mC]*d[5mC]*d[5mC]*dA*d[5mC]*d[5mC]*d[5mC]*kT*kG*kG) [Compound 958643]
The “YAP1 (% UTC)” value of the first is lower: 15 % UTC for the first, 59 % UTC for the second.

Same assay, conditions: Table 12; A-431 cells, 5,000 cells per well, free uptake, 2,000 nM modified oligonucleotide, approx. 48 hours; RTS36584; normalized to RIBOGREEN; Yap1 mRNA relative to untreated control cells

First: 958564 (kT*k[5mC]*k[5mC]*dA*dA*dA*dT*dT*dG*dA*dA*dG*dG*kG*k[5mC]*k[5mC]; antisense) [Compound 958564]
Second: 958809 (kT*k[5mC]*kT*dT*dA*dA*d[5mC]*dA*d[5mC]*d[5mC]*dT*dG*dA*kG*k[5mC]*kT; antisense) [Compound 958809]
The “YAP1 (% UTC)” value of the first is lower: 62 % UTC for the first, 66 % UTC for the second.

Compared with “958494 (kT*kA*kG*d[5mC]*dA*d[5mC]*dT*dA*dG*dG*dA*dG*dG*kA*kA*kA; antisense) [Compound 958494]”, “958754 (antisense k[5mC]*k[5mC]*kT*dT*dA*dG*dG*dA*dA*dG*dG*d[5mC]*dT*k[5mC]*k[5mC]*k[5mC]) [Compound 958754]” is higher in “YAP1 (% UTC)” value: 28 % UTC for the first, 31 % UTC for the second.

Compared with “958554 (kA*kA*k[5mC]*d[5mC]*dA*dT*dT*dA*dT*dT*dA*d[5mC]*dT*k[5mC]*k[5mC]*kT; antisense) [Compound 958554]”, “958619 (antisense kT*kG*kG*dG*dT*d[5mC]*dT*dA*dG*d[5mC]*d[5mC]*dA*dA*kG*kA*kG) [Compound 958619]” is higher in “YAP1 (% UTC)” value: 1 % UTC for the first, 71 % UTC for the second.

Same assay, conditions: Table 13; A-431 cells, 5,000 cells per well, free uptake, 2,000 nM modified oligonucleotide, approx. 48 hours; RTS36584; normalized to RIBOGREEN; Yap1 mRNA relative to untreated control cells

Going from “958515 (k[5mC]*k[5mC]*k[5mC]*d[5mC]*dA*dA*d[5mC]*d[5mC]*dA*dG*dA*dT*dT*kT*kA*kA; antisense) [Compound 958515]” to “958655 (kG*k[5mC]*kA*dA*dT*d[5mC]*dT*dG*dT*dG*dA*dT*d[5mC]*k[5mC]*k[5mC]*kA; antisense) [Compound 958655]”, the “YAP1 (% UTC)” value falls from 28 % UTC to 12 % UTC.

In the case of “958505 (kG*kA*kT*dA*dA*dT*d[5mC]*dG*dA*dG*dA*dT*dT*kT*kA*kA; antisense) [Compound 958505]”, the “YAP1 (% UTC)” value is reported as 6 % UTC.

Same assay, conditions: Table 26; Yap1 mRNA by 3-10-3 cEt gapmers targeting SEQ ID NO.: 1, and 2; percent of untreated control

In the case of “1076172 (kT*kA*kT*dT*dA*dG*dT*dA*dA*dA*dG*dA*dG*kT*kA*k[5mC]; antisense) [compound 1076172]”, the “YAP1 (% UTC)” value is reported as 98 % UTC.

Same assay, conditions: Table 27; Yap1 mRNA by 3-10-3 cEt gapmers targeting SEQ ID NO.: 1, and 2; percent of untreated control

First: 1074605 (DNA kT*k[5mC]*kA*dA*d[5mC]*dT*dA*d[5mC]*d[5mC]*dA*dA*dT*dA*kT*kA*k[5mC]) [compound 1074605]
Second: 1075469 (antisense kT*kG*kA*dT*dA*dT*dA*dA*dT*dG*dA*d[5mC]*d[5mC]*kA*kA*kG) [compound 1075469]
The “YAP1 (% UTC)” value of the first is lower: 20 % UTC for the first, 25 % UTC for the second.

First: 1075597 (antisense kA*kT*kT*dA*dA*d[5mC]*dA*dT*dT*dT*dG*d[5mC]*d[5mC]*k[5mC]*kG*k[5mC]) [compound 1075597]
Second: 1075501 (k[5mC]*kA*kT*dA*dA*dA*dT*dT*dA*dA*dG*d[5mC]*d[5mC]*kA*kA*k[5mC]; antisense) [compound 1075501]
The “YAP1 (% UTC)” value of the first is lower: 47 % UTC for the first, 67 % UTC for the second.

With “1074637 (antisense kA*kA*kT*d[5mC]*dT*dA*dT*d[5mC]*dT*dT*d[5mC]*d[5mC]*d[5mC]*kA*kA*kG) [compound 1074637]” the “YAP1 (% UTC)” value was 36 % UTC.

Same assay, conditions: Table 28; Yap1 mRNA as percent of untreated control; 3-10-3 cEt gapmers targeting SEQ ID NO.: 1, and 2

First: 1075374 (antisense kG*kA*kA*dA*dA*dT*dA*d[5mC]*dT*d[5mC]*d[5mC]*dT*d[5mC]*k[5mC]*kT*kA) [compound 1075374]
Second: 1075694 (kA*k[5mC]*kA*dT*dT*dA*dA*dA*dA*dG*dT*dT*dG*kG*kG*kT; antisense) [compound 1075694]
The “YAP1 (% UTC)” value of the first is higher: 27 % UTC for the first, 11 % UTC for the second.

Compared with “1076238 (kG*kA*kT*dG*dA*dA*dT*dA*dG*d[5mC]*dT*dA*dA*kG*kA*kA; antisense) [compound 1076238]”, “1075342 (antisense kA*k[5mC]*kT*dA*dA*dA*dA*dG*dG*dG*dA*dG*dT*kA*kG*kG) [compound 1075342]” is higher in “YAP1 (% UTC)” value: 30 % UTC for the first, 87 % UTC for the second.

“1074382 (kA*kG*kG*dT*dA*dG*dT*d[5mC]*dT*dG*dG*dG*dA*kA*kA*k[5mC]; antisense) [compound 1074382]” was tested, and the “YAP1 (% UTC)” value was 8 % UTC.

Same assay, conditions: Table 29; Yap1 mRNA as percent of untreated control; 3-10-3 cEt gapmers targeting SEQ ID NO.: 1, and 2

Going from “1076207 (kA*kG*kT*d[5mC]*dA*dA*dT*dA*dA*dA*d[5mC]*dT*dT*kA*k[5mC]*k[5mC]; antisense) [compound 1076207]” to “1075471 (antisense kA*kG*k[5mC]*d[5mC]*dA*dA*dT*dA*dA*dG*dT*dT*dA*kT*k[5mC]*kA) [compound 1075471]”, the “YAP1 (% UTC)” value falls from 58 % UTC to 55 % UTC.

Same assay, conditions: Table 34; Yap1 mRNA as percent of untreated control; 3-10-3 cEt gapmers targeting SEQ ID NO: 1 and 2; single dose

For “1075412 (antisense kT*k[5mC]*k[5mC]*dA*dA*dA*dA*dA*dG*dG*dG*dT*dA*kA*kG*kG) [compound 1075412]”, the “YAP1 (% UTC)” value was 48 % UTC.

Same assay, conditions: Table 35; Yap1 mRNA as percent of untreated control; 3-10-3 cEt gapmers targeting SEQ ID NO: 1 and 2; single dose

First: 1076149 (kT*kT*kA*dT*dT*dA*dA*d[5mC]*dT*d[5mC]*dA*d[5mC]*dG*kA*kA*kG; antisense) [compound 1076149]
Second: 1076565 (k[5mC]*kA*kT*dT*dA*dA*dG*dT*d[5mC]*dA*d[5mC]*dA*dG*k[5mC]*kA*kT; antisense) [compound 1076565]
The “YAP1 (% UTC)” value of the first is lower: 24 % UTC for the first, 74 % UTC for the second.

For “1076277 (kG*k[5mC]*kT*dA*dA*dA*dA*d[5mC]*dA*dT*d[5mC]*dA*dG*kA*kT*kA; antisense) [compound 1076277]”, the “YAP1 (% UTC)” value was 24 % UTC.
